The target in data set [1] is T1, CtGK (Thermochaetoides thermophila, UniProt G0SAG9).
T1 construct: gene CTHT_0042250; residues 67-590 (models start at residue 65), N-terminal His-tag cut by TEV, codon-optimized gene, E. coli BL21(DE3), dimer
T1 sequence (G0SAG9 67-590): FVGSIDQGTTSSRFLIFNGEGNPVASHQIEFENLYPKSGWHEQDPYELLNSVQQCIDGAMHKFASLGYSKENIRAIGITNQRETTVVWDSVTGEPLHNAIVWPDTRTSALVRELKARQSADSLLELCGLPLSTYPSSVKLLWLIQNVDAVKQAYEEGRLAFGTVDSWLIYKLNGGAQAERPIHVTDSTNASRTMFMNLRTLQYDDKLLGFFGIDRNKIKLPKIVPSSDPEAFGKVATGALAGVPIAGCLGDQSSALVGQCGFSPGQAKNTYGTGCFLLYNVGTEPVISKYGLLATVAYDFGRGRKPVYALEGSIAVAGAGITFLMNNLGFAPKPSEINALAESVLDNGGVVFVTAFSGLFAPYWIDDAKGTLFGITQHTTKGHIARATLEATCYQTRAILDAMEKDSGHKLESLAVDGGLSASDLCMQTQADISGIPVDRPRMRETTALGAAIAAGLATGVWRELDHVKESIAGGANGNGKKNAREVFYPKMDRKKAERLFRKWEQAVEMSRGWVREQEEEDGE
In words: thermal shift assay, Sypro Orange. Format: binding. Particulars: 50 mM Tris, 200 mM NaCl, pH 8.0.

The target of data set [2] is T1, CtGK. Briefly: X-ray crystal structure (glycerol soak). Format: binding. Particulars: 20-25% glycerol as cryoprotectant; 0.2 M CaCl2, PEG 3350; active site in N-terminal domain.
Substrate in the data set “purified protein”: Nc1ncnc2c1ncn2[C@@H]1O[C@H](COP(=O)(O)OP(=O)(O)OP(=O)(O)O)[C@@H](O)[C@H]1O
In words: purified protein. The class given is biochemical, Thermochaetoides thermophila. As to conditions: 1 mM glycerol, 5 mM MgCl2, 50 mM KCl, 250 mM sucrose, 20 mM Tris-HCl pH 7.4, 37 °C, substrate inhibition at high ATP.

Data set [3] deals with the molecule itself. In words: SEC-MALS; XBridge BEH200 7.8 x 300 column, 50 mM Tris pH 7.8, 200 mM NaCl, 1 mL/min.

With `Nc1ncnc2c1ncn2[C@@H]1O[C@H](COP(=O)(O)OP(=O)(O)O)[C@@H](O)[C@H]1O` [ADP], the Tm at CtGK [1] (0.5 mM ADP, no glycerol) turned out to be 55.0 ± 1.11 °C. As to `O=P(O)(O)OC[C@H]1OC(O)(COP(=O)(O)O)[C@@H](O)[C@@H]1O` (stereo partly shown) [fructose-1,6-bisphosphate], the midpoint of thermal melting (Tm) entry at CtGK [1] (0.5 mM FBP, with GOL and ATP, site unidentified) was “FBP prevents the protein destabilization by GOL and ATP (Figure S1B)”.

Turning to `Nc1ncnc2c1ncn2[C@@H]1O[C@H](COP(=O)(O)OP(=O)(O)OP(=O)(O)O)[C@@H](O)[C@H]1O` [ATP], the Tm at CtGK [1] (0.5 mM ATP, no glycerol) came out at 54.5 ± 0.00 °C. On to `OCC(O)CO` [glycerol], for which the Tm at CtGK [1] (5% glycerol, no nucleotide) came out at 53.88 ± 0.48 °C. In addition, the “X-ray crystal structure (glycerol soak)” value on CtGK [2] is listed as “we were able to solve the enzyme-substrate complex with a clear electron density”.

B1: glycerol kinase from Chaetomium thermophilum (enzyme, UniProt G0SAG9 67-590, looked up)
chain: T1 sequence (G0SAG9 67-590)
notes: glycerol kinase, Chaetomium thermophilum, UniProt G0SAG9, residues 67-590; codon-optimised synthetic gene in pET24d with N-terminal His-Tag and TEV site; The crystal models begin at residue 65 (67 for chain B) although the construct is stated as 67-590; also called CtGK; GK; source: E. coli BL21 (DE3), purified (Ni-Sepharose, TEV cleavage, second Ni-Sepharose, gel filtration on Superdex 75); not …
For B1, the Km in “purified protein” was found to be 52 ± 9 µM. In addition, the “stoichiometry N” value in data set [3] is 2.
